Earlier results, collected in patent US20070250301A1, “Normalizing cell assay data for models” (Cytokinetics, Inc., A Delaware Corporation, priority 2006, published 2007).
Numbered stars: 1 amine (or outer) side, 2 acyl side, 3 side chain; on linkers, the order of the positions; unused ones are H or OH. Bridge positions count the residues as written; N and C are the ends. Square brackets hold non-standard residues; d marks the D form. Peptide text beside a SMILES is read from it. Trp(2-yl) = O=C([C@H](Cc1c([*:3])[nH]c2ccccc12)N[*:1])[*:2]; Leu(4R-OH,5-OH) = C[C@](O)(CO)C[C@H](N)C(=O)O; cisHyp = O=C(O)[C@@H]1C[C@H](O)CN1

Key:
[1] = test system: filamentous F actin around canaliculi and tight junctions
bile flow = details: rats; resulting in cholestatic injury

C[C@@H]1NC(=O)[C@H](C[C@@](C)(O)CO)NC(=O)[C@@H]2Cc3c([nH]c4ccccc34)SC[C@H](NC(=O)[C@@H]([C@H](C)O)NC1=O)C(=O)N1C[C@@H](O)C[C@H]1C(=O)N[C@@H](C)C(=O)N2 [phalloidin] (cyclo(A[dT]C[cisHyp]A[Trp(2-yl)][Leu(4R-OH,5-OH)]); thioether 3-6)
effect on filamentous F actin [1]: increase in filamentous F actin

C=C1[C@@H](C)[C@H]2[C@H](Cc3ccccc3)NC(=O)[C@]23OC(=O)/C=C/[C@H](O)CCC[C@@H](C)C/C=C/[C@H]3[C@@H]1O [cytochalasin B]
effect on bile flow (bile flow): prompt arrest of bile flow
